Data taken from patent publication US11786595B2, “Methods for radiotherapy to trigger light activation drugs” (priority 2015, dated 2023).

Key:
[1] = tested on: B16 melanoma cells; assay: Flow cytometry of MHC class I expression after X-ray/Cherenkov exposure; type: cell-based; conditions: 72 hour incubation
[2] = tested on: B16 melanoma cells; assay: CellTiter-Glo luminescence (cell viability) versus TMP concentration, with or without Cherenkov light; type: cell-based; conditions: 6 MV x-rays at 2 Gy, 48-hour incubation, with Cherenkov light vs without
[3] = tested on: Venezuelan equine encephalitis virus (VEEV); conditions: cited from earlier work
[4] = tested on: Zaire Ebola virus (ZEBOV); conditions: cited from earlier work
[5] = tested on: Acinetobacter baumannii; conditions: loaded into MCM-41 host, visible light 100 milliWatts per square centimeter; cited from earlier work

Cc1cc2cc3c(C)cc(=O)oc3c(C)c2o1 [TMP, 4,5′,8-trimethyl psoralen]
MHC 1 expression ([1]; 15 MV X-ray exposure with Cherenkov light): 13.7%
MHC 1 expression ([1]; control with no Cherenkov (x-rays only)): 8.01%
MHC 1 expression ([1]; control with no x-rays): 5.46%
cell viability / cell kill [2]: cell viability is reduced

[N-]=[N+]=Nc1cccc2c(I)cccc12 [INA, 1,5-iodonaphthyl-azide]
virus inactivation [3]: efficiently inactivate
virus infectivity after INA treatment [4]: completely noninfectious

[Mn(PaPy3)(NO)](ClO4) [{Mn—NO}]
clearing of bacteria by released nitric oxide [5]: effectively cleared the bacteria
